{
  "source": "patent US10561681B2",
  "about": "“Antimetastatic 2H-selenopheno[3,2-h]chromenes, synthesis thereof, and methods of using same agents” (Latvian Institute of Organic Synthesis, priority 2016, dated 2020)",
  "system": "Lewis lung carcinoma (LLC)",
  "assay": "Mouse non-metastatic cancer model, Lewis lung carcinoma s.c. in BALB/c mice",
  "assay_type": "in vivo",
  "settings": "s.c. Day 1, 2, 3, 4, 7, 8, 9, 10, 11; dose 20 mg/kg, total dose 180 mg/kg",
  "protocol": "Six-week-old female ICR and BALB/c mice were purchased from the University of Tartu Laboratory Animal Centre (Estonia). The mice were housed five to a cage, and under standard conditions (21-23° C., 12 h light: dark cycle), fed ad libitum (R3 diet, Lactamin AB, Kimstad, Sweden) and observed daily. The experimental procedures involving experimental animals were carried out in accordance with the guidelines of the European Community, local laws and policies, and were approved by the Latvian Animal Protection Ethical Committee, the Food and Veterinary Service, Riga, Latvia.\nIn vivo studies were performed utilizing the mouse sarcoma CCRF-S180 II (CCL-8) and Lewis lung carcinoma (LLC) cell line. All cell lines were purchased from ATCC. The cells were grown in Dulbecco's modified Eagle's medium (Sigma) supplemented with 10% fetal calf serum (Sigma).\nICR mice were subcutaneously inoculated in the back with 5×10^6 CCL-8 cells and BALB/c mice were inoculated with 1×10^6 LLC (Lewis Lung Carcinoma) cells, which were suspended in 0.1 mL of PBS on day zero of the study. The compounds dissolved in DMSO and then in 0.1 mL water (DMSO final concentration 1%) were injected s.c. Mice in the untreated group were similarly given doses of 0.1 mL of water with DMSO. Tumor volume (tumor volume V=[…], a is maximal and b the minimal tumor diameter) was recorded twice per week. […]",
  "data": [
    {"smiles": "COC(=O)c1cc2ccc3c(Br)c(CN4CCN(C)CC4)[se]c3c2oc1=O", "note": "[Compound I-10, Methyl 7-bromo-8-((4-methylpiperazin-1-yl)methyl)-2-oxo-2H-selenopheno[3,2-h]chromene-3-carboxylate]", "values": [
      {"measurement": "Anticancer activity in vivo (inhibition, %), Lewis Lung Carcinoma primary tumor growth", "value": 34, "unit": "%"}
    ]}
  ]
}
